Source: US20100267561A1, “HERBICIDAL PYRIDAZINONE DERIVATIVES” (priority 2007, published 2010)

Legend:
Test in all cases: Test B pre-/postemergence plant response
Type in all cases: in vivo
[1] = tested on: Italian ryegrass (Lolium multiflorum)
How it was run: (§1)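 Preemergence and postemergence (plants 2-18 cm, 1- to 4-leaf stage) applications used test chemicals in a non-phytotoxic solvent with surfactant. Plants were held in a greenhouse 13 to 15 days, then rated visually against controls on a 0-100 scale (0 no effect, 100 complete control).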

[2] = tested on: Russian thistle (Salsola iberica); conditions: Preemergence
How it was run: as §1

[3] = tested on: blackgrass (Alopecurus myosuroides)
How it was run: as §1

[4] = tested on: catchweed bedstraw (Galium aparine); conditions: Preemergence
How it was run: as §1

[5] = tested on: common ragweed (Ambrosia elation)
How it was run: as §1

[6] = tested on: eastern black (E.B.) nightshade (Solanum ptycanthum); conditions: Preemergence
How it was run: as §1

[7] = tested on: giant foxtail (Setaria faberii)
How it was run: as §1

[8] = tested on: goosegrass (Eleusine indica)
How it was run: as §1

[9] = tested on: johnsongrass (Sorghum halepense)
How it was run: as §1

[10] = tested on: lambsquarters (Chenopodium album)
How it was run: as §1

[11] = tested on: pigweed (Amaranthus retroflexus)
How it was run: as §1

soybean (Glycine max) = tested on: soybean (Glycine max)
How it was run: as §1

[12] = tested on: woolly cupgrass (Eriochloa villosa)
How it was run: as §1

[13] = 8 g ai/ha, postemergence, 0-100 scale
[14] = 16 g ai/ha, postemergence, 0-100 scale
[15] = Postemergence, 31 g ai/ha, scale 0 to 100
[16] = Postemergence, 62 g ai/ha, scale 0 to 100, 0 no effect, 100 complete control
[17] = Preemergence, 8 g ai/ha, scale 0 to 100 (0 no effect, 100 complete control)
[18] = Preemergence, 31 g ai/ha, scale 0 to 100 (0 no effect, 100 complete control)
[19] = Preemergence, 62 g ai/ha, 0 to 100 scale, 0 no effect, 100 complete control
[20] = Preemergence, 16 g ai/ha, scale 0 to 100
[21] = 8 g ai/ha, scale 0 to 100 (0 no effect, 100 complete control)
[22] = 31 g ai/ha, scale 0 to 100 (0 no effect, 100 complete control)
[23] = 62 g ai/ha, 0 to 100 scale, 0 no effect, 100 complete control
[24] = Postemergence, 16 g ai/ha, scale 0 to 100

Cc1nn(C)c(=O)c(-n2nc(-c3ccc(Br)cc3)cc2C)c1O [Compound 81]
Ryegrass, Italian plant response rating [1, 13]: 85
Ryegrass, Italian plant response rating [1, 14]: 90
Plant response rating, Ryegrass, Italian [1, 15]: 100
Plant response rating, Ryegrass, Italian [1, 16]: 100
Ryegrass, Italian plant response rating [1, 17]: 70
Plant response rating, Ryegrass, Italian [1, 18]: 100
Plant response rating, Ryegrass, Italian [1, 19]: 100
Ryegrass, Italian plant response rating [1, 20]: 100
Russian Thistle plant response rating [2, 21]: 0
Plant response rating, Russian Thistle [2, 22]: 0
Plant response rating, Russian Thistle [2, 23]: 0
Russian Thistle plant response rating ([2]; 16 g ai/ha, scale 0 to 100): 0
Blackgrass plant response rating [3, 13]: 85
Plant response rating, Blackgrass [3, 24]: 90
Plant response rating, Blackgrass [3, 15]: 98
Plant response rating, Blackgrass [3, 16]: 100
Blackgrass plant response rating [3, 17]: 80
Plant response rating, Blackgrass [3, 18]: 100
Plant response rating, Blackgrass [3, 19]: 100
Blackgrass plant response rating [3, 20]: 85
Galium plant response rating [4, 21]: 0
Plant response rating, Galium [4, 22]: 0
Plant response rating, Galium [4, 23]: 0
Galium plant response rating ([4]; 16 g ai/ha, scale 0 to 100): 0
Ragweed plant response rating [5, 13]: 0
Ragweed plant response rating [5, 14]: 0
Plant response rating, Ragweed [5, 15]: 0
Plant response rating, Ragweed [5, 16]: 20
Ragweed plant response rating [5, 17]: 0
Plant response rating, Ragweed [5, 18]: 0
Plant response rating, Ragweed [5, 19]: 0
Ragweed plant response rating [5, 20]: 0
Nightshade, E. B. plant response rating [6, 21]: 0
Plant response rating, Nightshade, E. B. [6, 22]: 0
Plant response rating, Nightshade, E. B. [6, 23]: 50
Nightshade, E. B. plant response rating ([6]; 16 g ai/ha, scale 0 to 100): 0
Foxtail, Giant plant response rating [7, 13]: 80
Plant response rating, Foxtail, Giant [7, 24]: 85
Plant response rating, Foxtail, Giant [7, 15]: 98
Plant response rating, Foxtail, Giant [7, 16]: 100
Foxtail, Giant plant response rating [7, 17]: 80
Plant response rating, Foxtail, Giant [7, 18]: 100
Plant response rating, Foxtail, Giant [7, 19]: 100
Foxtail, Giant plant response rating [7, 20]: 100
Goosegrass plant response rating [8, 13]: 65
Goosegrass plant response rating [8, 14]: 70
Plant response rating, Goosegrass [8, 15]: 80
Plant response rating, Goosegrass [8, 16]: 85
Goosegrass plant response rating [8, 17]: 80
Plant response rating, Goosegrass [8, 18]: 100
Plant response rating, Goosegrass [8, 19]: 100
Goosegrass plant response rating [8, 20]: 98
Johnsongrass plant response rating [9, 13]: 75
Johnsongrass plant response rating [9, 14]: 95
Plant response rating, Johnsongrass [9, 16]: 100
Johnsongrass plant response rating [9, 17]: 60
Plant response rating, Johnsongrass [9, 18]: 95
Plant response rating, Johnsongrass [9, 19]: 95
Johnsongrass plant response rating [9, 20]: 80
Lambsquarters plant response rating [10, 13]: 0
Lambsquarters plant response rating [10, 14]: 0
Plant response rating, Lambsquarters [10, 15]: 0
Plant response rating, Lambsquarters [10, 16]: 0
Lambsquarters plant response rating [10, 17]: 0
Plant response rating, Lambsquarters [10, 18]: 0
Plant response rating, Lambsquarters [10, 19]: 0
Lambsquarters plant response rating [10, 20]: 0
Pigweed plant response rating [11, 13]: 0
Pigweed plant response rating [11, 14]: 0
Plant response rating, Pigweed [11, 15]: 0
Plant response rating, Pigweed [11, 16]: 0
Pigweed plant response rating [11, 17]: 0
Plant response rating, Pigweed [11, 18]: 0
Plant response rating, Pigweed [11, 19]: 55
Pigweed plant response rating [11, 20]: 0
Soybean plant response rating (soybean (Glycine max); [13]): 0
Soybean plant response rating (soybean (Glycine max); [14]): 0
Plant response rating, Soybean (soybean (Glycine max); [15]): 15
Plant response rating, Soybean (soybean (Glycine max); [16]): 20
Soybean plant response rating (soybean (Glycine max); [17]): 0
Plant response rating, Soybean (soybean (Glycine max); [18]): 0
Plant response rating, Soybean (soybean (Glycine max); [19]): 0
Soybean plant response rating (soybean (Glycine max); [20]): 0
Cupgrass, Woolly plant response rating [12, 13]: 75
Plant response rating, Cupgrass, Woolly [12, 24]: 85
Plant response rating, Cupgrass, Woolly [12, 15]: 95
Plant response rating, Cupgrass, Woolly [12, 16]: 98
Cupgrass, Woolly plant response rating [12, 17]: 20
Plant response rating, Cupgrass, Woolly [12, 18]: 95
Plant response rating, Cupgrass, Woolly [12, 19]: 98
Cupgrass, Woolly plant response rating [12, 20]: 45
